Assay results reported in US20100267713A1, “4,4-DISUBSTITUTED PIPERIDINES” (priority 2007, published 2010).

Molecular target: T1, renin (Homo sapiens, UniProt P00797)
T1 construct: This test measures the formation of angiotensin I in human plasma; from tissue; host or cells: human plasma
T1 sequence (P00797 67-406): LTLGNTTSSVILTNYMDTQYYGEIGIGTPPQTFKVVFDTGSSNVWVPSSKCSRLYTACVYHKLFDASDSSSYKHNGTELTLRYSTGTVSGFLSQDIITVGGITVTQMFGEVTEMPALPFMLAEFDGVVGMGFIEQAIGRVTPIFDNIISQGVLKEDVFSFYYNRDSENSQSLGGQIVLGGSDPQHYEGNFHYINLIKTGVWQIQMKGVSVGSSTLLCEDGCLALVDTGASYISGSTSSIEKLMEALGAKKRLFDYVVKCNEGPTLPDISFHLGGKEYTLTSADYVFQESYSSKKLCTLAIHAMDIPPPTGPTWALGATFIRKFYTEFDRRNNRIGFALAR
Assay: formation of angiotensin I in human plasma, radioimmunoassay (Nussberger et al.)
Assay type: biochemical
Conditions: read-out: IC50, inhibition of the formation of angiotensin I
Protocol: The effect of renin inhibitors is detected inter alia experimentally by means of in vitro tests where the reduction in the formation of angiotensin I is measured in various systems (human plasma, purified human renin together with synthetic or natural renin substrate). The following in vitro test of Nussberger et al. (1987) J. Cardiovascular Pharmacol., Vol. 9, pp. 39-44, is used inter alia. This test measures the formation of angiotensin I in human plasma. The amount of angiotensin I formed is determined in a subsequent radioimmunoassay. The effect of inhibitors on the formation of angiotensin I is tested in this system by adding various concentrations of these substances. The IC50 is defined as the concentration of the particular inhibitor which reduces the formation of angiotensin I by 50%. The compounds of the present invention show inhibitory effects in the in vitro systems at minimal concentrations of about 10^−6 to about […].

Work on `CCCc1nc(COC[C@@H](C)OCC)ccc1[C@@]1(O)CCNC[C@@H]1OCc1ccc2c(c1)N(CCCOC)CCO2` [Example 501, (3′S,4′S)-6-((R)-2-Ethoxy-propoxymethyl)-3′-[4-(3-methoxy-propyl)-3,4-dihydro-2H-benzo[1,4]oxazin-6-ylmethoxy]-2-propyl-2′,3′,5′,6′-tetrahydro-1′H-[3,4′]bipyridinyl-4′-ol] yielded an IC50 of 48 nM.
